The subject of series [1] is rat. To be noted: Fertility (Segment I), wistar, Oral, Gavage/Intubation, dose end: 7 GD.
For series [2], the system named is rat. To be noted: Subchronic oral toxicity in rodents; wistar; Injection; Intravenous; dose end: 3 month; group: systemic; systemic / clinical chemistry / urea nitrogen / urea + systemic / hematology / erythrocyte (rbc) count differential / erythrocyte (rbc) + ….
Series [3] concerns rat. Conditions: Prenatal developmental toxicity study; wistar; Injection; Intravenous; dose end: 18 GD; group: maternal; systemic / in life observation / body weight / body weight gain + systemic / in life observation / clinical signs / motor activity + ….
Series [4] deals with rat. Conditions: Combined chronic toxicity/carcinogenicity; sprague dawley; Oral; Feed; dose end: 104 week; group: systemic; systemic / pathology microscopic / liver / hypertrophy + systemic / pathology microscopic / stomach / hyperkeratosis + systemic / pathology ….
Series [5] has as its system rat. To be noted: Multigenerational reproductive toxicity study, Crl: CD BR, Oral, Feed, dose end: 2 generation.
Series [6] relates to dog. To be noted: Subchronic oral toxicity in nonrodent, beagle, Capsule, dose end: 102 day, group: systemic.
Where [7] appears, read: group: maternal, reproductive / reproductive performance / estrous cycle / corpora lutea + reproductive / reproductive performance / implantations / ….
[8] abbreviates: group: parental, systemic / in life observation / body weight / body weight + systemic / in life observation / clinical signs / ataxia + systemic / in life ….
[9] abbreviates: group: offspring, systemic / pathology gross / stomach / irregular surface + systemic / pathology gross / stomach / thickened + systemic / pathology ….
The mark [10] stands for this setting: group: parental, systemic / organ weight / kidney / relative to body weight + systemic / pathology gross / stomach / irregular surface + systemic / pathology….

`CC(C)c1ccc(C(=O)N=C(N)N)cc1S(C)(=O)=O.CS(=O)(=O)O` [Cariporide mesylate]: the LEL in series [1] (setting [7]) is 400 mg/kg/day; in series [1] (group: parental, systemic / in life observation / clinical signs / salivation), 100 mg/kg/day; in series [2] it was 125 mg/kg/day; in series [3], 125 mg/kg/day. Further, the lowest observed adverse effect level (LOAEL) (usually the lowest tested level that showed an adverse finding) is > 400 mg/kg/day in series [1] (setting [7]), > 400 mg/kg/day in series [1] (setting [8]), 125 mg/kg/day in series [2] and > 125 mg/kg/day in series [3]. In addition, the NEL in series [1] (setting [7]) turned out to be 100 mg/kg/day; in series [1] (setting [8]), 25 mg/kg/day; in series [2] it was 25 mg/kg/day; in series [3], 25 mg/kg/day. Besides, the NOAEL (usually the highest dose or exposure tested at which no adverse effect was seen) in series [1] (setting [7]) is ≥ 400 mg/kg/day; in series [1] (setting [8]), ≥ 400 mg/kg/day; in series [2], 25 mg/kg/day; in series [3], ≥ 125 mg/kg/day.

Turning to `N#Cc1c(Cl)c(Cl)c(Cl)c(C#N)c1Cl` [Chlorothalonil], the LEL in series [4] came out at 0.7 mg/kg/day; in series [5] (setting [9]) it was 32.9 mg/kg/day; in series [5] (setting [10]) it was 28.6 mg/kg/day; in series [6] (systemic / clinical chemistry / glucose / glucose), 15 mg/kg/day. Moreover, the LOAEL in series [4] came out at 0.9 mg/kg/day; in series [5] (setting [9]) it was 32.9 mg/kg/day; in series [5] (setting [10]) it was 28.6 mg/kg/day; in series [6] (systemic / clinical chemistry / glucose / glucose + systemic / organ weight / liver / absolute + systemic / urinalysis / ph / ph), 50 mg/kg/day. Moreover, the NEL was < 0.7 mg/kg/day in series [4], < 32.9 mg/kg/day in series [5] (setting [9]), < 28.6 mg/kg/day in series [5] (setting [10]) and 5 mg/kg/day in series [6] (systemic / clinical chemistry / glucose / glucose + systemic / urinalysis / ph / ph + systemic / hematology / erythrocyte (rbc) count …). The NOAEL in series [4] was < 0.9 mg/kg/day; in series [5] (setting [9]), < 32.9 mg/kg/day; in series [5] (setting [10]), < 28.6 mg/kg/day; in series [6] (systemic / clinical chemistry / glucose / glucose + systemic / organ weight / liver / absolute + systemic / urinalysis / ph / ph + systemic…), 15 mg/kg/day.
